Source: article PMC4008261, “Rewiring of regenerated axons by combining treadmill training with semaphorin3A inhibition” (Molecular Brain, 2014)

Legend:
[1] = tested on: SCT adult rats; assay: Kinematic analysis of hindlimb motor performance on a treadmill; format: in vivo, rat
Procedure: Rats were randomly divided into the following three experimental groups: 1) untrained + placebo, 2) untrained + SM-345431 and 3) trained + SM-345431. SCT was performed, and SM-345431 or placebo was administered at the lesion site via the newly developed DDS, which is described in detail below. Starting 1 week post-injury, treadmill training commenced with a BSS. Kinematic tests were performed monthly for 3 months after SCT using a rodent robotic device (Rodent robot 3000, Robomedica Inc.) that primarily assessed the performance of plantar stepping on a treadmill. Treadmill training was continued throughout the experimental period.
A robotic device (rodent robot 3000, Robomedica Inc.) was used to train the SCT rats. Briefly, the device consisted of a computer-controlled BSS, two lightweight robotic arms and a treadmill with variable motorized speeds. The ankles of the hindlimbs of rats were held with a pair of releasable rope cuffs, which were then secured to robotic arms to track ankle trajectory in the horizontal and vertical directions. A computer-controlled body support arm was used to control the load that was applied to the hindlimbs and to maintain body equilibrium. Rats were secured in a cloth vest and attached to the body support arm with a hook-and-loop fabric. Hard rope cuffs were attached to the hindlimbs of rats with the robotic arm during training.
Additionally, improvements in motor performance were more obvious when the treadmill training was initiated at earlier time points after SCT. Therefore, training was initiated as early as 1 week after SCT. The fixed parameters were set at 50% body weight support (BWS), 20 min/day and 5 days/week. The animals were adapted to the training via increasing velocity; a velocity of 1 cm/s was used in the first week, and then the velocity was increased by 2 cm/s every 2 weeks for the first 2 months after injury (i.e., 1 cm/s to 3 cm/s to 5 cm/s). […] Once the rats dragged their hindlimbs and stopped walking on the treadmill, a trainer brought their bodies back to the original walking position. The step ability of SCT rats on the treadmill improved gradually over the course of the first 2 months following injury. However, this improvement was attenuated at time points later than 2 months after injury.
To evaluate the locomotor capability of SCT rats in detail, the aforementioned robotic device was employed. Each robotic arm tracked the two-dimensional movement of the ankle, and the trajectory of the ankle movement was then recorded on a computer for kinematic analyses. Not all the rats were able to walk by themselves on the treadmill by the last time point of the experiment. Therefore, when performing the tests, the degree of BWS and treadmill speed were titrated to obtain the maximum walking performance on the treadmill. As a result of this titration, the behavioral tests were performed at 70% BWS and a treadmill velocity of 1 cm/s each month after SCT. The duration of testing was 1 min per rat to minimize training effects during testing. The methods of previous reports were followed with slight adaptations. Briefly, the ankle trajectory in each plane was recorded by the robotic arm and a computer. Then, the toe off (TO) and paw contact (PC) events in each step cycle were identified using Rodent Robot 3000 software. All kinematic characteristics were obtained when TO and PC were identified; as a result, parameters such as the duration phase, the swing phase of the step cycle and the length and height of the step were calculated. The number of animals used in these behavioral tests was 32 (control: n = 9, SM-345431: n = 12, combined: n = 11).

[2] = tested on: Mediator release, TNF-alfa, PBML; assay: Pharmacological profile: mediator release; format: cell-based
Source text: (§1) Table 1 Pharmacological profile of SM-345431 (part 1) | column: IC50 (μm)

[3] = tested on: Mediator release, IL-5; assay: Pharmacological profile: mediator release; format: cell-based
Source text: as §1

[4] = tested on: Mediator release, IL-6; assay: Pharmacological profile: mediator release; format: cell-based
Source text: as §1

[5] = tested on: Mediator release, IFN-gamma; assay: Pharmacological profile: mediator release; format: cell-based
Source text: as §1

[6] = tested on: Mediator release, IL-10; assay: Pharmacological profile: mediator release; format: cell-based
Source text: as §1

[7] = tested on: Mediator release, IL-1beta; assay: Pharmacological profile: mediator release; format: cell-based
Source text: as §1

[8] = tested on: Mediator release, IL-4; assay: Pharmacological profile: mediator release; format: cell-based
Source text: as §1

[9] = tested on: Mediator release, IL-2; assay: Pharmacological profile: mediator release; format: cell-based
Source text: as §1

[10] = tested on: Transcription response, NF-AT; assay: Pharmacological profile: transcription response; format: cell-based
Source text: as §1

[11] = tested on: Transcription response, NF-kB; assay: Pharmacological profile: transcription response; format: cell-based
Source text: as §1

[12] = molecular target: T1, semaphorin3A (Homo sapiens, UniProt Q14563); assay: Growth cone collapse assay, E8 chick DRG; format: cell-based; set-up: expressed in transfected cells; host or cells: COS7; details: read-out: semaphorin3A inhibiting activity, IC50
T1 sequence (Q14563 21-771): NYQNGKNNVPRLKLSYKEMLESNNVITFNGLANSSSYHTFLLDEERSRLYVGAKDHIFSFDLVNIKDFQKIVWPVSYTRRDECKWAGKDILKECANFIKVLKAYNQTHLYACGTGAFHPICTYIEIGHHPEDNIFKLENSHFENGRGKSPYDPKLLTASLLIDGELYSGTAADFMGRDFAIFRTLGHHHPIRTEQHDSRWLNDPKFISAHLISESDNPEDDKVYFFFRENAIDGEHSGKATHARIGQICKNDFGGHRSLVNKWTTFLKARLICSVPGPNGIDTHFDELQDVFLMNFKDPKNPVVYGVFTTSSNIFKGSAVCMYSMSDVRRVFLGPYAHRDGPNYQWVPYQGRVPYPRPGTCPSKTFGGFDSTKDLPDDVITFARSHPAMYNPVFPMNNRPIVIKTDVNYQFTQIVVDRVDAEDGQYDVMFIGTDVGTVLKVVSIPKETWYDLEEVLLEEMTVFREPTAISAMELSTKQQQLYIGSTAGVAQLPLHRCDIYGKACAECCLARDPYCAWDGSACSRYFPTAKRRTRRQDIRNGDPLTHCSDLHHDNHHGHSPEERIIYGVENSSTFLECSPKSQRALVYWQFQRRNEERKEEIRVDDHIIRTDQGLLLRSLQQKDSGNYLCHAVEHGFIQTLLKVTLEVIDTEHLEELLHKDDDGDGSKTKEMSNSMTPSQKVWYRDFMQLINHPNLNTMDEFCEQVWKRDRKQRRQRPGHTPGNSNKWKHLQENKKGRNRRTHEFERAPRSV
Procedure: The growth cone collapse assay and collagen co-culture experiments were performed as previously described. To examine the effects of SM-345431-silicone, small pieces (2 × 1 × 0.3 mm; approximately 1 mg containing 1 μg of SM-345431) of the SM-345431-silicone or control-silicone were placed in a collagen gel adjacent to E8 chick DRGs and COS7 cell aggregates, as shown in Figure 1C.

[13] = tested on: Adhesion, fibronectin-mediated; assay: Pharmacological profile: cell adhesion; format: cell-based
Source text: as §1

[14] = SM-345431 alone, 70% BWS, 1 cm/s

For CC(=O)c1cc2c(=O)c3c(C(=O)O)c(O)c(O)cc3oc2c(C(C)=O)c1-c1coc2cc(O)c(O)c(C(=O)O)c2c1=O [SM-345431, Vinaxanthone], the “plantar step walking on a treadmill with the BSS” value ([1]; SM-345431 alone, without extensive treadmill training) was “did not result in plantar step walking”, the “effect on the step height parameter” value [1, 14] was “moderate and statistically insignificant” and the “locomotor function on a treadmill, step length parameters (average and maximum)” value [1, 14] was “improved locomotor function”. The “step cycle area versus control SCT rats” value ([1]; SM-345431 alone, P < 0.05 at 3 months) was “statistically significant enhancement”, the “effect on the step height parameter (average and maximum)” value ([1]; SM-345431 combined with extensive treadmill training) was “greater enhancement was observed” and the “duration of continuous plantar step walking on a treadmill with the BSS” value ([1]; SM-345431 combined with extensive treadmill training, all rats) was “at least 30 min”. For the same molecule, the “step cycle area versus control SCT rats” value ([1]; SM-345431 combined with treadmill training, P < 0.05 first month, P < 0.01 second and third month) was “even greater improvement”, the IC50 [2] was greater than 10 µM and the IC50 [3] was greater than 10 µM. It also gave an IC50 [4] greater than 10 µM, an IC50 [5] greater than 10 µM and an IC50 [6] greater than 10 µM. It also gave an IC50 [7] greater than 10 µM, an IC50 [8] greater than 10 µM and an IC50 [9] greater than 10 µM. It also gave an IC50 [10] greater than 10 µM, an IC50 [11] greater than 10 µM and an IC50 [12] of 0.1 to 0.2 µM. For the same molecule, the IC50 [13] was greater than 10 µM.
